Assay results: US20260115185A1, “QUINOLINE DERIVATIVES WHICH ACT AS KAPPA-OPIOID RECEPTOR ANTAGONISTS” (The Scripps Research Institute, priority 2023, published 2026)

Legend:
[1] = target: T1, kappa opioid receptor (KOR) (Homo sapiens, UniProt P41145); assay: OPRKappa 1 Tango B-Arrestin Assay, antagonist mode (Tango OPRK1-bla U2OS cells, U50488 EC80 challenge); type: cell-based; conditions: for Selectivity (MOR/KOR): Kappa selectivity, MOR IC50 / KOR IC50; for IC50: antagonist mode, Tango OPRK1-bla U2OS cells, 6 nM U50488 challenge
T1 construct: host or cells: U2OS (Tango OPRK1-bla U2OS)
T1 sequence (P41145 whole entry): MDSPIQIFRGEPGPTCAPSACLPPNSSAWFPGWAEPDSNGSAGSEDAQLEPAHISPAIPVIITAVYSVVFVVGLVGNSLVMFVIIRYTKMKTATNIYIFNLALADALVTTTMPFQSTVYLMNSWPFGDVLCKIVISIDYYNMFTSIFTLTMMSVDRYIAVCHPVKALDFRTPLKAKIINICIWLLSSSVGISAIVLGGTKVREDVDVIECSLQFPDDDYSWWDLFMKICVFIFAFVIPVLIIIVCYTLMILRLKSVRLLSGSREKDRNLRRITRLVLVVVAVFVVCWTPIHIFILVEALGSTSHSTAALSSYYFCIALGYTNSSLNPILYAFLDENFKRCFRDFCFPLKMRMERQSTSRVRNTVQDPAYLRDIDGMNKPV
Description: OPRKappa 1 Tango B-Arrestin Assay Protocol-Antagonist Mode. […] The assay uses Tango OPRK1-bla U2OS cells which express OPRK1 linked to a GAL4-VP16 transcription factor via a TEV protease site. The cells also express a β-arrestin/TEV protease fusion protein and a β-lactamase (BLA) reporter gene under the control of a UAS response element. Stimulation of the OPRK1 receptor by agonist causes migration of the β-arrestin fusion protein to the GPCR, and through proteolysis liberates GAL4-VP16 from the receptor. The liberated VP16-GAL4 migrates to the nucleus, where it induces transcription of the BLA gene. BLA expression is monitored by measuring fluorescence resonance energy transfer (FRET) of a cleavable, fluorogenic, cell-permeable BLA substrate. As designed, test compounds that are OPRK1 antagonists inhibit agonist activation and migration of the fusion protein, thus preventing proteolysis of GAL4-VP16 and BLA transcription, leading to no increase in well FRET. Compounds were tested in quadruplicate using a 10-point, 1:3 dilution series starting at a nominal concentration of 10 micromolar.
The Tango OPRK1-U20S Dividing cell line was routinely cultured in 150 mm dishes at 37C, 5% CO2 and 95% relative humidity (RH).
On Day 1 of the assay, 16,000 cells in 10 μL of assay media (DMEM-Glutamax—with Sodium Pyruvate, 10% fetal bovine serum stripped with charcoal-dextran (CDS), 25 mM HEPES, 0.1 mM non-essential amino acids, antibiotic mix (penicillin streptomycin)) were seeded into each well of a 384 Greiner 788092 black low profile, clear bottom, low volume plate, and incubated 16-24 hours at 37° C., 5% CO2 and 95% (RH).
On Day 2, 50 nL of test compound in DMSO was added to the appropriate wells and plates were incubated for 30 min at 37° C. 5% CO2 and 95% (RH). Next was added 0.65 μL of commercially available U50488 OPRK1 agonist or DMSO in assay media: this EC80 Challenge consists of 0.6 μL of 111 nM U50488 to yield a final assay concentration of 6 nM). After incubation for 4 hours at 37° C., 5% CO2 and 95% (RH), 2.5 μL of LiveBLazer™FRET B/G (CCF4-AM) Mix (Soln.'s A,B,C,&D) was added to each well and incubated at room temperature in the dark for 2 hours. Well fluorescence was measured on Perkin Elmer's Envision using an Excitation filter 409 nm, Emission filters at 460 nm and […], bottom read.
(§1) The Percent Inhibition was calculated from the median ratio as follows:
• Tango™OPRK1-bla U20S Cells (Invitrogen K1576) • McCoy's 5A Medium, (Invitrogen 16600-082) • Dialyzed Fetal Bovine Serum, (Invitrogen 26400-036) • Non Essential Amino Acids 100× (Invitrogen part 11140-050) • HEPES (pH 7.3) 1M, (Invitrogen 15630-080) • Sodium Pyruvate 100× (Invitrogen 11360-070) • Penicillin Streptomycin, (Invitrogen 15640) • Trypsin 0.25% EDTA (Invitrogen 25200056) • DPBS without Calcium/Magnesium (Invitrogen 14190-136) • DMEM, High Glucose, GlutaMAX (Invitrogen 10569-010) • Fetal Bovine Serum, Charcoal Stripped (Invitrogen 12676-011) • DMSO Dry (Sigma D2650) • U50488 OPRK1 Agonist MW410.29 (Tocris 67198-19-0) • GNTI dihydrochloride OPRK1 Antagonist MW571.5 (Tocris 1282) • Nor-Binaltorphimine dihydrochloridc MW770.75 (Tocris 0347)
LiveBLAzere™-FRET/BG Loading Mix: (Invitrogen K1030 (5 mg)), composed of Solutions A, B, C, and D: • Solution A (6 μL): LiveBLAzer™-FRET/BG Substrate (CCF4-AM) • Solution B (60 μL) • Solution C (904 μL) • Solution C (must add 250 μl of 1N NaOH to 45 mL of Solution C prior to use) • Solution D (30 μL) [Probinicid] (Sigma P8161) make 200 mM stock in NaOH—H2O.

mu opioid receptor (MOR) = target: T2, mu opioid receptor (MOR) (Homo sapiens, UniProt P35372); assay: OPRMu1 Discover X β-arrestin Assay, antagonist mode (U2OS cells, DAMGO EC80 challenge); type: cell-based
T2 construct: host or cells: U2OS (Discover X OPRMu1-U2OS, PathHunter)
T2 sequence (P35372 whole entry): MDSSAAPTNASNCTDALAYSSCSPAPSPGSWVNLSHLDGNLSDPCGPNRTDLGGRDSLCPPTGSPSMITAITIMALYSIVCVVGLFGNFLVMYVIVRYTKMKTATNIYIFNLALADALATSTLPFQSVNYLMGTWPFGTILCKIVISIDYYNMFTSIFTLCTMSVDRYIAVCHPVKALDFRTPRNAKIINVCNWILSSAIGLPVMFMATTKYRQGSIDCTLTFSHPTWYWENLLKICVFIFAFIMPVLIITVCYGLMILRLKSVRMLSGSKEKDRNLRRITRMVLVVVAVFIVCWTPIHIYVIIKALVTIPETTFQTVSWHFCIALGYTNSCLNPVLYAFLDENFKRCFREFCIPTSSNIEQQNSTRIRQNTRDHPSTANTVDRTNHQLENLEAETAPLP
Description: OPRMu1 Discover X—β-arrestin Assay—Antagonist Mode. […] This assay evaluates the OPRMu1 activation in membrane recruitment of β-arrestin. In addition, the assay evaluates GPCR-β-arrestin proximity using low affinity fragment complementation of beta-galactosidase (beta-gal). The assay employs U20S cells, which express OPRMu1 fused to the complementary beta-gal fragment (enzyme acceptor). As designed, compounds that act as antagonists will prevent receptor activation resulting in reduced well luminescence. Compounds were tested in quadruplicate using a 10-point, 1:3 dilution series starting at a nominal concentration of 10 micromolar.
The Discover X OPRMu1-U20S cell line was cultured in 150 mm dishes at 37° C., 5% CO2 and 95% relative humidity (RH).
On Day 1 of the assay, 5000 cells in 20 μL of assay buffer (Discover X's Cell Plating Reagent 5) were seeded into each well of a 384 Corning 3570 standard white plate, and incubated 16-24 hours at 37° C., 5% CO2 and 95% RH.
On Day 2, 100 nL of test compound in DMSO were added to the appropriate wells and the plates were then incubated for 30 min at 37° C. 5% CO2 and 95% RH. Next, 2.2 μL of DAMGO OPRMu1 agonist (commercially available) or DMSO in assay media. (The EC80 Challenge consists of 1.8 μL of 3.7 μM DAMGO, 0.4 μL of Assay Buffer, with a final assay concentration of 303 nM). After incubation for 3 hours at 37° C. 5% CO2, and 95% RH, 10 μL of Path Hunter Detection Mix was added to each well, and the plate was then incubated at room temperature in the dark for 1 hour. Well luminescence was measured on Perkin Elmer's Envision.
as §1
• DMEM Medium, (Invitrogen 11965) • F12 Medium, (Invitrogen 11765) • Heat Inactivated Fetal Bovine Serum, (Invitrogen 10082147) • Non Essential Amino Acids 100× (Invitrogen 11140-050) • HEPES (pH 7.3) 1M, (Invitrogen 15630-080) • Sodium Pyruvate 100× (Invitrogen 11360-070) • Penicillin Streptomycin, (Invitrogen 15640) • Trypsin 0.25% EDTA (Invitrogen 25200056) • DPBS without Calcium/Magnesium (Invitrogen 14190-136) • DMSO Dry (Sigma D2650) • DAMGO OPRMu1 Agonist MW513.19 (Sigma E7384-5MG) • B-Funaltrexamine Hydrochloride OPRM1 Antagonist MW (SIGMA 0003-2MG) • PathHunter Cell Plating 5 Reagent (Discover X 93-0563R5A) • Corning 3750 Standard 384 well white plate with lid.
PathHunter Detection Mix (DiscoverX 93-0001): 1 part Galacton Star/5 parts Emerald II/19 parts PH Cell Assay Buffer.

Structure (SMILES)	IC50 [1] [nM]	IC50 (mu opioid receptor (MOR)) [nM]	Selectivity (MOR/KOR) [1]
CCc1cc(F)c2nc(N3CC[C@@H](N[C@@H]4CCOC4)[C@@H](F)C3)c(-c3ccn(C)n3)c(C)c2c1 [Compound 192, (3S,4R)-1-(6-ethyl-8-fluoro-4-methyl-3-(1-methyl-1H-pyrazol-3-yl)quinolin-2-yl)-3-fluoro-N—((R)-tetrahydrofuran-3-yl)piperidin-4-amine]	< 1	> 1000	++++ (more than 1000-fold selectivity over MOR)
CCc1cc(-c2ccnn2C)c2nc(N3CCC(N[C@@H]4CCOC[C@@H]4F)CC3)c(-c3ccn(C)n3)c(C)c2c1 [Compound 20, 1-(6-ethyl-4-methyl-3-(1-methyl-1H-pyrazol-3-yl)-8-(1-methyl-1H-pyrazol-5-yl)quinolin-2-yl)-N-((3R,4R)-3-fluorotetrahydro-2H-pyran-4-yl)piperidin-4-amine]	< 1	10 to 100	++ (between 10- and 100-fold selectivity)
CCc1cc(-c2ccnn2C)c2nc(N3CCC(N[C@H]4CCOC4)CC3)c(-c3ccn(C)n3)c(C)c2c1 [Compound 86]	< 1	> 1000	+++ (between 100- to 1000-fold selective)
CCc1cc(F)c2nc(N3CC[C@H](N[C@@H]4CCOC4)C[C@H]3C)c(-c3cc(C)no3)c(C)c2c1 [Compound 140]	< 1	100 to 1000	+++ (between 100- to 1000-fold selective)
CCc1cc(F)c2nc(N3CCN(C(=O)CN(CC)CC)C[C@H]3C)c(-c3ccn(C)n3)c(C)c2c1 [Compound 176]	1 to 10	> 1000	+++ (between 100- to 1000-fold selective)
CCc1cc(F)c2nc(N3CC[C@H](N[C@@H]4CCCOC4)C[C@H]3C)c(-c3cc(C)no3)c(C)c2c1 [Compound 142]	< 1	10 to 100	+++ (between 100- to 1000-fold selective)
CCc1cc(-c2ccnn2C)c2nc(N3CC[C@@H](NC4CCOCC4)[C@@H](F)C3)c(-c3ccn(C)n3)c(C)c2c1 [Compound 15, (3S,4R)-1-(6-ethyl-4-methyl-3-(1-methyl-1H-pyrazol-3-yl)-8-(1-methyl-1H-pyrazol-5-yl)quinolin-2-yl)-3-fluoro-N-(tetrahydro-2H-pyran-4-yl)piperidin-4-amine]	1 to 10	10 to 100	++ (between 10- and 100-fold selectivity)
CCc1cc(F)c2nc(N3CCC(N[C@H]4CCOC[C@H]4F)CC3)c(-c3cc(C)n(C)n3)c(C)c2c1 [Compound 5, 1-(3-(1,5-dimethyl-1H-pyrazol-3-yl)-6-ethyl-8-fluoro-4-methylquinolin-2-yl)-N-((3S,4S)-3-fluorotetrahydro-2H-pyran-4-yl)piperidin-4-amine]	1 to 10	100 to 1000	+++ (between 100- to 1000-fold selective)
CCc1cc(-c2ccn(C)n2)c2nc(N3CCC(N[C@H]4CCOC[C@@H]4F)CC3)c(-c3nc(C)no3)c(C)c2c1 [Compound 102]	< 1	> 1000	++++ (more than 1000-fold selectivity over MOR)
CCc1cc(F)c2nc(N3CCN(C[C@H]4CCOC4)C[C@H]3C)c(-c3ccn(C)n3)c(C)c2c1 [Compound 58]	10 to 100	> 1000	+++ (between 100- to 1000-fold selective)
CCc1cc(C#N)c2nc(N3CCC(NCC4(F)CCOCC4)CC3)c(-c3ccn(C)n3)c(C)c2c1 [Compound 80]	1 to 10	100 to 1000	++ (between 10- and 100-fold selectivity)

Now from value to compound, other results behind:

IC50 [1] [nM]	IC50 (mu opioid receptor (MOR)) [nM]	Structure (SMILES)	Selectivity (MOR/KOR) [1]
10 to 100	> 1000	CCc1cc(F)c2nc(N3CCN(/C(=N/C#N)NC)C[C@H]3C)c(-c3nc(C)no3)c(C)c2c1 [Compound 55]	++ (between 10- and 100-fold selectivity)
1 to 10	> 1000	CCc1cc(F)c2nc(N3CCN(C(=O)[C@H](CO)N(C)C)C[C@H]3C)c(-c3nc(C)no3)c(C)c2c1 [Compound 162]	+++ (between 100- to 1000-fold selective)
10 to 100	> 1000	CCc1cc(F)c2nc(N3CCN(CC4CCOCC4)C[C@H]3C)c(-c3nc(C)no3)c(C)c2c1 [Compound 49, (R)-5-(6-ethyl-8-fluoro-4-methyl-2-(2-methyl-4-((tetrahydro-2H-pyran-4-yl)methyl)piperazin-1-yl)quinolin-3-yl)-3-methyl-1,2,4-oxadiazole]	+++ (between 100- to 1000-fold selective)
1 to 10	> 1000	CCc1cc(F)c2nc(N3CCN(C[C@@H]4CCCO4)C[C@H]3C)c(-c3nc(C)no3)c(C)c2c1 [Compound 29]	+++ (between 100- to 1000-fold selective)
10 to 100	> 1000	CCc1cc(F)c2nc(N3CCN(C(=O)[C@H]4COCCN4C)C[C@H]3C)c(-c3nc(C)no3)c(C)c2c1 [Compound 184]	+++ (between 100- to 1000-fold selective)
10 to 100	> 1000	CCc1cc(F)c2nc(N3CCN(C(=O)[C@H](C)N(CC)CC)C[C@H]3C)c(-c3cc(C)no3)c(C)c2c1 [Compound 164]	+++ (between 100- to 1000-fold selective)
